Measured values: patent publication US20210120789A1, “Genetically Modified Non-Human Animals” (Shanghai RAAS Blood Products Co., Ltd., priority 2019, published 2021)

Key:
[1] = tested on: factor IX deficient mice (F9−/−); test: Hemophilia B model, tail transection bleeding time; type: in vivo, mouse; settings: distal tail transected at 4 mm, injected into an orbital vein 5 min before transection, vs no factor injected
Description: (§1) For hemophilia A model, 8 to 10-week-old mice including WT mice, factor VIII deficient mice (F8−/−) and human protein C knockin and factor VIII deficient double mutant mice (hproC+/+, F8−/−) anesthetized using 80 mg/kg sodium pentobarbital i.p. were placed on their abdomen with the tail immersed in 37° C. saline. The distal tail of mice was transected at 4 mm (severe injury), and the bleeding was arterial and venous. Human factor VIII was injected into an orbital vein 5 min before the tail was transected. Controls were also performed in which no Human Factor VIII was injected. For hemophilia B model, the same procedures were conducted except that factor IX deficient mice (F9−/−), human protein C knockin and factor IX deficient double mutant mice (hproC+/+, F9−/−), and human factor IX were used. Bleeding time was measured following the tail-tip transection and immediate immersion of the tail in 10 ml of saline at 37° C. Bleeding time was set at cessation of blood leakage for at least 1 min. After 15 min, the tail was removed from the saline and the bleeding time measure was ended.

[2] = tested on: human protein C knockin and factor IX deficient double mutant mice (hproC+/+, F9−/−); test: Hemophilia B model, tail transection bleeding time; type: in vivo, mouse; settings: distal tail transected at 4 mm, injected into an orbital vein 5 min before transection, vs no factor injected
Description: as §1

## human factor IX: human blood clotting factor IX, injected before tail transection in the hemophilia B model
[1]
  bleeding time: correct the prolonged bleeding time
[2]
  bleeding time: correct the prolonged bleeding time
